Experimental data reported in patent US6429222B2, “1-(p-thienylbenzyl)imidazoles as agonists of angiotensin (1-7) receptors, processes for their preparation, their use, and pharmaceutical preparations comprising them” (priority 1999, dated 2002).

Key:
[1] = system: isolated, working rat hearts; test: Test 3: Isolated, working rat hearts (Langendorff), coronary flow; design: species or system Wistar-Kyoto rats; conditions: 10^−6 mol/l; for Coronary flow: treated hearts, n=4
From the text: Pharmacol. 8 (Suppl. 10) (1986) S91-S99.
Test 3: Isolated, working rat hearts
Isolated hearts of Wistar-Kyoto rats (280-300 g body weight) are perfused with a constant perfusion pressure of 60 mmHg according to the method of Langendorff using an oxygen-saturated (95% O2, 5% CO2), nonrecirculating, modified Krebs-Henseleit buffer solution (118 mmol/l of NaCl, 4.7 mmol/l of KCl, 2.5 mmol/l of CaCl2, 1.6 mmol/l of MgSO4, 24.9 mmol/l of NaHCO3, 1.2 mmol/l of KH2PO4, 5.5 mmol/l of glucose, and 2.0 mmol/l of sodium pyruvate). For the measurement of the coronary flow, a catheter having an electromagnetic measuring head placed in the pulmonary artery was used. After a 15-minute equilibration period, the heart is converted into the working mode, in which a preload of 15 mmHg and an afterload of 60 mmHg is set. The working load of the heart remains constant during the entire test time of 90 minutes. Flow and pressure signals for the analysis are recorded by means of a PLUGSYS measuring system (Hugo Sachs Elektronik). The analysis of the data is carried out at a collection frequency of 500 Hz, averaged every 2 seconds, using the software Aquire Plus VI.21f (PO-NE-MAH).

[2] = system: human platelet-rich plasma; test: Test 4: Collagen-induced platelet aggregation in human platelet-rich plasma; type: cell-based; conditions: collagen + 30 μM compound, 37° C., 20 min incubation, n=6; collagen alone 92±2.7%
Experimental: The action of compounds of formula (I) on collagen-induced platelet aggregation was investigated in human platelet-rich plasma, which is described, for example, in G.V. Born et al., Nature (1962).
Human platelet-rich plasma (PRP) from 6 blood donors was incubated with the test compound at 37° C. for 20 min, then activated with collagen, and the maximal aggregation of the platelets was quantified in % via light transmission.

`CCCCOC(=O)NS(=O)(=O)c1sc(CC(C)C)cc1-c1ccc(Cn2c(-c3ccccc3)nc(OC)c2C=O)cc1` [Example 2, 5-Formyl-4-methoxy-2-phenyl-1-[[4-[2-(n-butyloxycarbonylsulfonamido)-5-isobutyl-3-thienyl]phenyl]methyl]imidazole] was tested, and the heart rate ([1]; during the entire experiment) was “unchanged”, the Coronary flow ([1]; time 0 min) was 8.92 ± 0.68 mL/min and the Coronary flow ([1]; time 5 min) was 11.29 ± 0.90 mL/min. For the same compound, the Coronary flow ([1]; time 10 min) was 12.17 ± 0.74 mL/min, the Coronary flow ([1]; time 15 min) was 12.22 ± 0.10 mL/min and the platelet aggregation [2] was 52±5.7 % aggregation.
